Calls of active or inactive are those of the source. No cut-off for these calls is given here.
Assays:
Pseudomonas aeruginosa [1] = experiment: Antibiofilm activity against Pseudomonas aeruginosa PAO1 in ABTGC medium assessed as inhibition of biofilm formation incubated for 24 hrs by crystal violet staining based absorbance assay; assay type: functional, organism-based; settings: PAO1, 24 h
Pseudomonas aeruginosa [2] = experiment: Antibacterial activity against Pseudomonas aeruginosa PAO1 in ABTGC medium assessed as bacterial growth inhibition incubated for 16 hrs; assay type: functional
[3] = Metal chelating activity assessed as Fe3+-compound complex formation assessed as pFe(III) value by fluorescence method
Pseudomonas aeruginosa [4] = experiment: Inhibition of iron homeostasis in Pseudomonas aeruginosa PAO1 in ABTGC medium assessed as decrease in iron level at 1.25 to 20 uM in presence of FeCl3 by fluorescence based microplate reader analysis (Rvb= 9.6+/-2.00 microM); assay type: functional; settings: dose 1.25-20 µM
Pseudomonas aeruginosa [5] = experiment: In vivo antibacterial activity against Pseudomonas aeruginosa PAO1 infected in Balb/c mouse wound infection model assessed as healing degree of wound at 0.005 mg/ml,TOP QD for 3 days and measured after 9 days; assay type: functional, organism-based; settings: time 3.0 day
[6] = Toxicity in Balb/c mouse wound infection model infected with Pseudomonas aeruginosa PAO1 assessed as morphological changes in lung at 0.0025 to 0.5 mg/ml,TOP for 3 days by H and E staining based analysis; assay type: tissue-based; settings: in vivo, topical_or_ocular, 72 h, dose 0.0025-0.5 mg/ml, time 3 day
Pseudomonas aeruginosa [7] = experiment: In vivo antibacterial activity against Pseudomonas aeruginosa PAO1 infected in Balb/c mouse wound infection model assessed as healing degree of wound at 0.5 mg/ml,TOP QD for 3 days and measured after 9 days; assay type: functional, organism-based; settings: time 3.0 day
[8] = Toxicity in Balb/c mouse wound infection model infected with Pseudomonas aeruginosa PAO1 assessed as body weight change at 0.0025 mg/ml,TOP for 3 days in presence of N-hydroxy-7-((6-methyl-2-oxo-2H-chromen-4-yl)oxy)heptanamide; settings: in vivo, topical_or_ocular, 72 h, time 3 day
[9] = Toxicity in Balb/c mouse wound infection model infected with Pseudomonas aeruginosa PAO1 assessed as morphological changes in kidney at 0.0025 mg/ml,TOP for 3 days in presence of N-hydroxy-7-((6-methyl-2-oxo-2H-chromen-4-yl)oxy)heptanamide by H and E staining based analysis; assay type: tissue-based; settings: in vivo, topical_or_ocular, 72 h, time 3 day
[10] = Toxicity in Balb/c mouse wound infection model infected with Pseudomonas aeruginosa PAO1 assessed as morphological changes in liver at 0.0025 to 0.5 mg/ml,TOP for 3 days by H and E staining based analysis; assay type: tissue-based; settings: in vivo, topical_or_ocular, 72 h, dose 0.0025-0.5 mg/ml, time 3 day
Pseudomonas aeruginosa [11] = experiment: In vivo antibacterial activity against Pseudomonas aeruginosa PAO1 infected in Balb/c mouse wound infection model assessed as reduction in bacterial survival rate at wounded area at 0.5 mg/ml,TOP QD for 3 days by CFU assay; assay type: functional; settings: time 3 day
[12] = Toxicity in Balb/c mouse wound infection model infected with Pseudomonas aeruginosa PAO1 assessed as morphological changes in lung at 0.0025 mg/ml,TOP for 3 days in presence of N-hydroxy-7-((6-methyl-2-oxo-2H-chromen-4-yl)oxy)heptanamide by H and E staining based analysis; assay type: tissue-based; settings: in vivo, topical_or_ocular, 72 h, time 3 day
[13] = Toxicity in Balb/c mouse wound infection model infected with Pseudomonas aeruginosa PAO1 assessed as morphological changes in spleen at 0.0025 to 0.5 mg/ml,TOP for 3 days by H and E staining based analysis; assay type: tissue-based; settings: in vivo, topical_or_ocular, 72 h, dose 0.0025-0.5 mg/ml, time 3 day
[14] = Toxicity in Balb/c mouse wound infection model infected with Pseudomonas aeruginosa PAO1 assessed as morphological changes in heart at 0.0025 to 0.5 mg/ml,TOP for 3 days by H and E staining based analysis; assay type: tissue-based; settings: in vivo, topical_or_ocular, 72 h, dose 0.0025-0.5 mg/ml, time 3 day
[15] = Toxicity in Balb/c mouse wound infection model infected with Pseudomonas aeruginosa PAO1 assessed as morphological changes in liver at 0.0025 mg/ml,TOP for 3 days in presence of N-hydroxy-7-((6-methyl-2-oxo-2H-chromen-4-yl)oxy)heptanamide by H and E staining based analysis; assay type: tissue-based; settings: in vivo, topical_or_ocular, 72 h, time 3 day
[16] = Toxicity in Balb/c mouse wound infection model infected with Pseudomonas aeruginosa PAO1 assessed as body weight change at 0.0025 to 0.5 mg/ml,TOP for 3 days; settings: in vivo, topical_or_ocular, 72 h, dose 0.0025-0.5 mg/ml, time 3 day
[17] = Toxicity in Balb/c mouse wound infection model infected with Pseudomonas aeruginosa PAO1 assessed as morphological changes in heart at 0.0025 mg/ml,TOP for 3 days in presence of N-hydroxy-7-((6-methyl-2-oxo-2H-chromen-4-yl)oxy)heptanamide by H and E staining based analysis; assay type: tissue-based; settings: in vivo, topical_or_ocular, 72 h, time 3 day
[18] = Toxicity in Balb/c mouse wound infection model infected with Pseudomonas aeruginosa PAO1 assessed as morphological changes in kidney at 0.0025 to 0.5 mg/ml,TOP for 3 days by H and E staining based analysis; assay type: tissue-based; settings: in vivo, topical_or_ocular, 72 h, dose 0.0025-0.5 mg/ml, time 3 day
[19] = Toxicity in Balb/c mouse wound infection model infected with Pseudomonas aeruginosa PAO1 assessed as morphological changes in spleen at 0.0025 mg/ml,TOP for 3 days in presence of N-hydroxy-7-((6-methyl-2-oxo-2H-chromen-4-yl)oxy)heptanamide by H and E staining based analysis; assay type: tissue-based; settings: in vivo, topical_or_ocular, 72 h, time 3 day

| SMILES | IC50 (Pseudomonas aeruginosa [1]) | MIC (Pseudomonas aeruginosa [2]) | further results |
| --- | --- | --- | --- |
| Cc1ccc2oc(=O)cc(OCc3ccc(C(=O)NO)cc3)c2c1 | > 100 µM | > 256 µM |  |
| Cc1ccccc1OCCCCCCC(=O)NO | > 100 µM | > 256 µM |  |
| COc1ccc2oc(=O)cc(OCCCCCC(=O)NO)c2c1 | > 100 µM | > 256 µM |  |
| CCCCCCOc1cc(=O)oc2ccc(C)cc12 | > 100 µM | > 256 µM |  |
| Cc1ccc2oc(=O)cc(NCCCCCCC(=O)NO)c2c1 | > 100 µM | > 256 µM |  |
| Cc1ccc2c(OCCCCC(=O)NO)cc(=O)oc2c1 | > 100 µM | > 256 µM |  |
| O=C(CCCCCCOc1cc(=O)oc2ccc(Cl)cc12)NO | > 100 µM | > 256 µM |  |
| O=C(CCCOc1cc(=O)oc2ccc(F)cc12)NO | > 100 µM | > 256 µM |  |
| Cc1ccc2oc(=O)cc(OCCCCCC(=O)NO)c2c1 | 12.3 µM | > 256 µM |  |
| O=C(CCCCCOc1cc(=O)oc2ccc(F)cc12)NO | 58.6 µM | > 256 µM |  |
| O=C(CCCCCCOc1cc(=O)oc2ccc(F)cc12)NO | 26.4 µM | > 256 µM |  |
| O=C(CCCCCOc1cc(=O)oc2cc(Cl)ccc12)NO | > 100 µM | > 256 µM |  |
| O=C(CCCOc1cc(=O)oc2cc(Cl)ccc12)NO | 88.4 µM | > 256 µM |  |
| O=C(CCCCCCOc1cc(=O)oc2cc(Cl)ccc12)NO | > 100 µM | > 256 µM |  |
| Cc1ccc2c(OCCCCCCC(=O)NO)cc(=O)oc2c1 | > 100 µM | > 256 µM |  |
| Cc1ccc2oc(=O)cc(OCCCC(=O)NO)c2c1 | 77.4 µM | > 256 µM |  |
| O=C(CCCOc1cc(=O)oc2ccccc12)NO | 88.4 µM | > 256 µM |  |
| O=C(CCCCOc1cc(=O)oc2ccc(Br)cc12)NO | 29.7 µM | > 256 µM |  |
| Cc1ccc2oc(=O)cc(OCCCCCCCCC(=O)NO)c2c1 | 20.4 µM | > 256 µM |  |
| O=C(CCCCOc1cc(=O)oc2ccc(F)cc12)NO | 9.8 µM | > 256 µM |  |
| Cc1cccc(OCCCCCCC(=O)NO)c1 | > 100 µM | > 256 µM |  |
| CCCCCCCOc1cc(=O)oc2ccc(C)cc12 | > 100 µM | > 256 µM |  |
| O=C(CCCCCCOc1cc(=O)oc2ccccc12)NO | 69.2 µM | > 256 µM |  |
| COc1ccc2c(OCCCCCCC(=O)NO)cc(=O)oc2c1 | 4.74 µM | > 256 µM |  |
| Cc1ccc2oc(=O)cc(OCCCCC(=O)NO)c2c1 | 12.8 µM | > 256 µM |  |
| COc1ccc2c(OCCCC(=O)NO)cc(=O)oc2c1 | > 100 µM | > 256 µM |  |
| Cc1ccc2oc(=O)cc(NCCCCCC(=O)NO)c2c1 | > 100 µM | > 256 µM |  |

| SMILES | IC50 (Pseudomonas aeruginosa [1]) | MIC (Pseudomonas aeruginosa [2]) | further results |
| --- | --- | --- | --- |
| O=C(CCCCOc1cc(=O)oc2ccc(Cl)cc12)NO | > 100 µM | > 256 µM |  |
| O=C(CCCCCCOc1ccccc1)NO | > 100 µM | > 256 µM |  |
| O=C(CCCCCOc1cc(=O)oc2ccc(Cl)cc12)NO | > 100 µM | > 256 µM |  |
| Cc1ccc2c(OCCCCCC(=O)NO)cc(=O)oc2c1 | > 100 µM | > 256 µM |  |
| O=C(CCCCCOc1cc(=O)oc2ccc(Br)cc12)NO | > 100 µM | > 256 µM |  |
| COc1ccc2c(OCCCCC(=O)NO)cc(=O)oc2c1 | > 100 µM | > 256 µM |  |
| Cc1ccc2oc(=O)cc(NCCCC(=O)NO)c2c1 | > 100 µM | > 256 µM |  |
| CCCCCCCCOc1cc(=O)oc2ccc(C)cc12 | > 100 µM | > 256 µM |  |
| O=C(CCCCCOc1cc(=O)oc2ccccc12)NO | 69.7 µM | > 256 µM |  |
| COc1ccc2oc(=O)cc(OCCCCCCC(=O)NO)c2c1 | > 100 µM | > 256 µM |  |
| Cc1ccc(OCCCCCCC(=O)NO)cc1 | > 100 µM | > 256 µM |  |
| O=C(CCCCCCOc1cc(=O)oc2ccc(Br)cc12)NO | 44.4 µM | > 256 µM |  |
| Cc1ccc2oc(=O)cc(OCCCCCCCC(=O)NO)c2c1 | > 100 µM | > 256 µM |  |
| O=C(CCCOc1cc(=O)oc2ccc(Cl)cc12)NO | > 100 µM | > 256 µM |  |
| COc1ccc2oc(=O)cc(OCCCCC(=O)NO)c2c1 | > 100 µM | > 256 µM |  |
| Cc1c(O)c(=O)ccn1C [DEFERIPRONE] |  |  | pFe(III) [3]: 20.1; Activity (Pseudomonas aeruginosa [4]): 7.74 µM |
| COc1ccc2oc(=O)cc(OCCCC(=O)NO)c2c1 | > 100 µM | > 256 µM |  |
| CC[C@H]1OC(=O)[C@H](C)[C@@H](O[C@H]2C[C@@](C)(OC)[C@@H](O)[C@H](C)O2)[C@H](C)[C@@H](O[C@@H]2O[C@H](C)C[C@H](N(C)C)[C@H]2O)[C@](C)(O)C[C@@H](C)CN(C)[C@H](C)[C@@H](O)[C@]1(C)O [AZITHROMYCIN] | 17.3 µM |  |  |
| O=C(O)c1cn(C2CC2)c2cc(N3CCNCC3)c(F)cc2c1=O |  |  | Activity (Pseudomonas aeruginosa [5]): Active |
| Cc1ccc2oc(=O)cc(NCCCCC(=O)NO)c2c1 | > 100 µM | > 256 µM |  |
| O=C(CCCCOc1cc(=O)oc2ccccc12)NO | 42.3 µM | > 256 µM |  |
| NC[C@H]1O[C@H](O[C@H]2[C@H](O)[C@@H](O[C@H]3O[C@H](CO)[C@@H](O)[C@H](N)[C@H]3O)[C@H](N)C[C@@H]2N)[C@H](N)C[C@@H]1O [TOBRAMYCIN] |  |  | Activity [6]: Non-Toxic; Activity (Pseudomonas aeruginosa [7]): Active; Activity [8]: Non-Toxic; Activity [9]: Non-Toxic; Activity [10]: Non-Toxic; Activity (Pseudomonas aeruginosa [11]): 5.77%; Activity [12]: Non-Toxic; Activity [13]: Non-Toxic; Activity [14]: Non-Toxic; Activity [15]: Non-Toxic; Activity [16]: Non-Toxic; Activity [17]: Non-Toxic; Activity [18]: Non-Toxic; Activity [19]: Non-Toxic |
| Cc1ccc2c(OCCCC(=O)NO)cc(=O)oc2c1 | > 100 µM | > 256 µM |  |
| O=C(CCCOc1cc(=O)oc2ccc(Br)cc12)NO | 70 µM | > 256 µM |  |
| O=C(CCCCOc1cc(=O)oc2cc(Cl)ccc12)NO | 42.3 µM | > 256 µM |  |
| COc1ccc2c(OCCCCCC(=O)NO)cc(=O)oc2c1 | 9.37 µM | > 256 µM |  |

From ChEMBL document CHEMBL5370649, “Novel Coumarin Derivatives Inhibit the Quorum Sensing System and Iron Homeostasis as Antibacterial Synergists against Pseudomonas aeruginosa” (J Med Chem, 2023)
